Here are results for one compound from publication PMC12391391, “The balance between B55α and Greatwall expression levels predicts sensitivity to Greatwall inhibition in cancer cells” (Nature Communications, 2025).

Data set [1] addresses CDK1/cyclinB (Homo sapiens, UniProt P06493). As to the kind of experiment: biochemical. Also on record: CDK1/cyclin B and off-target kinase inhibition assay.
The nature of data set [2]: in vitro. Further details: intrinsic clearance in mouse microsomes. The settings on record: liver microsomes; mouse liver microsomes. An excerpt:
We selected compound 1 as the lead exemplar of cluster 3 and leveraged it as a foundation for subsequent drug development (Fig. 1a). Structure-activity relationship studies and pharmacokinetic profiling produced several derivative molecules, of which compound 21 provided the best combination of outstanding inhibitory potential, low clearance in mouse microsomes and acceptable solubility (Fig. 1a–c and Supplementary Tables 1–4). […] This assessment was supported by structural modelling of the interaction between compound 21 and the active site of GWL (Fig. 1d). In further support of its GWL-targeting properties, compound 21 diminished the phosphorylation of the canonical GWL substrate ENSA(S67) in Xenopus laevis cytostatic factor (CSF) egg extract (Supplementary Fig. 2). Having satisfied the criteria of prospective GWL inhibitor, the racemic compound 21 was registered as UOS-00054604 and, for the remainder of the manuscript, is referred to as C-604.

Data set [3] concerns the target MAP3K9 (Homo sapiens, UniProt P80192). As to the kind of experiment: biochemical. Also on record: LanthaScreen kinase activity assay (Thermo Fisher), dose-dependent inhibition by C-604. The settings on record: read-out: IC50 (C-604). On the procedure:
(§1) To identify potential C-604 off-targets, we utilised a commercially available off-target screening service (Thermo Fisher Scientific) to assess the impact of C-604 on the in vitro activity of 100 human kinases (Supplementary Fig. 8a). Out of 100 tested targets, C-604 (1 µM) inhibited GWL (inhibition 95%) and an additional 10 kinases (inhibition ≥ 80%). […] The in vitro off-target effects of compound C-604 were determined by assessing its inhibitory potential in a panel of 100 human kinases using the LanthaScreen Kinase Activity Assay (Thermo Fisher Scientific).

The target of data set [4] is T1, MAP3K7 (Homo sapiens, UniProt O43318).
T1 sequence (O43318 1-606): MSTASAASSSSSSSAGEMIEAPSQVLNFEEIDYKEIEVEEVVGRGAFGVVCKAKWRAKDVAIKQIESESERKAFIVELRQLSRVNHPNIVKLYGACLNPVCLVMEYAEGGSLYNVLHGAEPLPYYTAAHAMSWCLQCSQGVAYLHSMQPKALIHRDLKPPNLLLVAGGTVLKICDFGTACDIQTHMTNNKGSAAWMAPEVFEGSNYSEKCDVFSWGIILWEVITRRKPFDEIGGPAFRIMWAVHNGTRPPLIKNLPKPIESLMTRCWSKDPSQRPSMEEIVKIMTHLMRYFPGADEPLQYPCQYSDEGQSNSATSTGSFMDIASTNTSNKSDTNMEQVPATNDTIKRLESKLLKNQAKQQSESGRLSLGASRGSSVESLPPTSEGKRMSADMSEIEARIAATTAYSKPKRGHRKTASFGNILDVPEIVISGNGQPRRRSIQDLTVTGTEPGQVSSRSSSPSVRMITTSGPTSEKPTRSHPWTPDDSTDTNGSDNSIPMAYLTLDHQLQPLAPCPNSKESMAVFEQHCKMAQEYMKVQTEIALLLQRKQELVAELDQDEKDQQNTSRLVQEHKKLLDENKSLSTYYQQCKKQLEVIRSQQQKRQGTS
As to the kind of experiment: biochemical. Further details: LanthaScreen kinase activity assay (Thermo Fisher), dose-dependent inhibition by C-604. The settings on record: read-out: IC50 (C-604). How it is done:
as §1

The target of data set [5] is MELK (Homo sapiens, UniProt Q14680). As to the kind of experiment: biochemical. Also on record: LanthaScreen kinase activity assay (Thermo Fisher), dose-dependent inhibition by C-604. The settings on record: read-out: IC50 (C-604). On the procedure: as §1
Chain of MELK (Q14680 whole entry): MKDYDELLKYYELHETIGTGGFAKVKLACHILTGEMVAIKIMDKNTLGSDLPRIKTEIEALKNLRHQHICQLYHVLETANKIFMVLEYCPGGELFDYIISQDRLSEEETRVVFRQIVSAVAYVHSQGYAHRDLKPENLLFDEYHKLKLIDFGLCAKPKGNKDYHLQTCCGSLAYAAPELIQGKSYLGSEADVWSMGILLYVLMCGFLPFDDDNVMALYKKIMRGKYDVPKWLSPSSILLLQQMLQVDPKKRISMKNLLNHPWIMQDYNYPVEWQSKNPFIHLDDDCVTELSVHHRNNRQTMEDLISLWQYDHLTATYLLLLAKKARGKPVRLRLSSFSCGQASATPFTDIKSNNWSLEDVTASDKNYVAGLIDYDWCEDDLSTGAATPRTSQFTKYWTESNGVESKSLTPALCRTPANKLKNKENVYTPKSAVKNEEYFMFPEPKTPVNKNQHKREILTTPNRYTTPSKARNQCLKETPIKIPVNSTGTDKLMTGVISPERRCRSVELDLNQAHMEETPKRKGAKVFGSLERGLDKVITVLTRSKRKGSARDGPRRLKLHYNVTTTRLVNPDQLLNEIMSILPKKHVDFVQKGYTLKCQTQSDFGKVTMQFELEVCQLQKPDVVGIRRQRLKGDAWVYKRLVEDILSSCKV

Chain of MAP3K9 (P80192 whole entry): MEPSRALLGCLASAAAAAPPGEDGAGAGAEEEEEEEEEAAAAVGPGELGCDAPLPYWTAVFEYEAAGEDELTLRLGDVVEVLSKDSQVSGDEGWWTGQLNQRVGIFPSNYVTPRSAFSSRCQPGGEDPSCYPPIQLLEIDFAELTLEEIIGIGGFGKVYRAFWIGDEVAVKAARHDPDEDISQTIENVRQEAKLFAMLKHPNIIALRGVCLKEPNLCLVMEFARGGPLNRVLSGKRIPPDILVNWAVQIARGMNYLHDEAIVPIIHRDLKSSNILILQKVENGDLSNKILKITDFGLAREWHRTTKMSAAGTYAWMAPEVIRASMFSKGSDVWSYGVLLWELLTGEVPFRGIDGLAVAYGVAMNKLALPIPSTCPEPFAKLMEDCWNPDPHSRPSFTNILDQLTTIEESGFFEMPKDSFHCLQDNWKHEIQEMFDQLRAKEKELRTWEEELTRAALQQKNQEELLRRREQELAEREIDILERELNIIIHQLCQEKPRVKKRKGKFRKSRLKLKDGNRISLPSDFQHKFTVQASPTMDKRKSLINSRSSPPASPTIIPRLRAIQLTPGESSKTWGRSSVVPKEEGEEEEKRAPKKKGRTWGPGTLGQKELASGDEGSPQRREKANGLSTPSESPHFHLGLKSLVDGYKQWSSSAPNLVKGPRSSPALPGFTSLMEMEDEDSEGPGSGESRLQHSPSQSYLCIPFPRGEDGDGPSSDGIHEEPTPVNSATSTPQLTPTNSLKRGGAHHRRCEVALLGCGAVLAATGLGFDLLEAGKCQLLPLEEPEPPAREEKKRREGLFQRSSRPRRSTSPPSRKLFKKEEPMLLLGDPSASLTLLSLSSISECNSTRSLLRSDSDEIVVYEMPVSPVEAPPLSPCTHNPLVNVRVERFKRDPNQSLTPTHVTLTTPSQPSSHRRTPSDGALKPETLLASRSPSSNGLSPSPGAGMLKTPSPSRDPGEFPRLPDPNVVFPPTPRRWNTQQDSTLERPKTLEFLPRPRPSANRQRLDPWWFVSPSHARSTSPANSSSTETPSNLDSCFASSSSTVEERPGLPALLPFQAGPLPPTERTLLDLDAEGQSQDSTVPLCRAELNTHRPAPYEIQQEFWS
Chain of CDK1/cyclinB (P06493 whole entry): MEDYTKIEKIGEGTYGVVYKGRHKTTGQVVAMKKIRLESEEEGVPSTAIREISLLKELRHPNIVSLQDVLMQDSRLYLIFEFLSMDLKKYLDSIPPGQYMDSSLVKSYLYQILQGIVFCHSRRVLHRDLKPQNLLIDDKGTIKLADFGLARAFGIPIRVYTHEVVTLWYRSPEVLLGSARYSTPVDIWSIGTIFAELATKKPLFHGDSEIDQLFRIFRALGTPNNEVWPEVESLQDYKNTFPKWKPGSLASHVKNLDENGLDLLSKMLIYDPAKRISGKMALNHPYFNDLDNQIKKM
Chain of CDK1/cyclinB (P14635 whole entry partner): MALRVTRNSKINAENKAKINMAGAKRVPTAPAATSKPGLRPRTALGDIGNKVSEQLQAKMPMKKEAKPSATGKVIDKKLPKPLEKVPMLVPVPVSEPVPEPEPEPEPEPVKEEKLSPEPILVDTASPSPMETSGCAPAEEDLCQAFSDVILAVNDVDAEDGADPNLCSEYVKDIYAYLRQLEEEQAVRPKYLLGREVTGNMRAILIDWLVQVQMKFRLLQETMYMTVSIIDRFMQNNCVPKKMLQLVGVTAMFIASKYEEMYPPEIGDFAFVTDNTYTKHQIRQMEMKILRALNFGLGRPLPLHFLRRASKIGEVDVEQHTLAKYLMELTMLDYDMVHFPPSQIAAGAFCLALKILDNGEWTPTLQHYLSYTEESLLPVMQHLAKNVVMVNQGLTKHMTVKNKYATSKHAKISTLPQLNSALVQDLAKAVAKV

Take `CNC(=O)c1c[nH]c2ncc(-c3ccc(OCCN4CCC(c5ccccc5)C4)cc3)nc12` (racemic) [compound 21, C-604]: the IC50 is > 30 µM in data set [1], 0.0293 µM in data set [3], 0.126 µM in data set [4] and 0.0169 µM in data set [5]. The microsomal CLint in data set [2] is 24 µL/min/mg.
